The results in this text go back to US5736380A, “Maltose-trehalose converting enzyme, and preparation and uses thereof” (Kabushiki Kaisha Hayashibara Seibutsu Kagaku Kenkyujo, priority 1993, dated 1998).

Entries after “also recorded” stand apart in the source; their conditions may differ. Where a name gives a salt, the structure may show the parent alone.

The target of assay [1] is T1, maltose-trehalose converting enzyme derived from Thermus aquaticus (ATCC 33923) (Thermus thermophilus, UniProt O06458).
T1 construct: The culture obtained in Experiment 15 was centrifuged to obtain an about 0.28 kg of wet cells; endogenous in cells; host or cells: Thermus aquaticus (ATCC 33923), enzyme purified from the disrupted wild-type cells
T1 sequence (O06458 1-963): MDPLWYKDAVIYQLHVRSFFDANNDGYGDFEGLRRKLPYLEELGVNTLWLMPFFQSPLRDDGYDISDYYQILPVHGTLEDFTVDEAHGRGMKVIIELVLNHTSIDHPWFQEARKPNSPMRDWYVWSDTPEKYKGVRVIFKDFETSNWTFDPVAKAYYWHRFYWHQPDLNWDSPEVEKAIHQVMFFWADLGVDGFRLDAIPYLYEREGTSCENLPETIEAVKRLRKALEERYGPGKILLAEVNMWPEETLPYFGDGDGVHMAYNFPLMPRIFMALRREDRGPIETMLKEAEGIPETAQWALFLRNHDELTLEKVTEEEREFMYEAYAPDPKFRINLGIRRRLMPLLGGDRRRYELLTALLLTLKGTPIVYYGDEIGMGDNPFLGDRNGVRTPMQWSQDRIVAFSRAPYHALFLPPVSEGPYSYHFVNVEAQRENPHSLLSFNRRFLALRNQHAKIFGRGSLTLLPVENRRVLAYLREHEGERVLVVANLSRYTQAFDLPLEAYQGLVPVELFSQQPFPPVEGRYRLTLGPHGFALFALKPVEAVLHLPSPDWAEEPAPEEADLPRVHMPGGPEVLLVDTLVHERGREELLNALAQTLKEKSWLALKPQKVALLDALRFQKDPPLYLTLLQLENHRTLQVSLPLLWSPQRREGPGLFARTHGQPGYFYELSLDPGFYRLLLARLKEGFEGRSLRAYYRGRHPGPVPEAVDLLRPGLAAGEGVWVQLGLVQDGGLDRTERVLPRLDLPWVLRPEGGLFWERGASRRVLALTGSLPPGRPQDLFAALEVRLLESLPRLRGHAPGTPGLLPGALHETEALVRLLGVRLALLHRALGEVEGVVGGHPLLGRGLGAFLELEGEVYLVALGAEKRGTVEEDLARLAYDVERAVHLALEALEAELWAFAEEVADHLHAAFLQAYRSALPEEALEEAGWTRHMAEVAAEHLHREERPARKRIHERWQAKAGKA
Description: Inhibition of enzyme activity. The format is biochemical. The settings on record: one mM Cu^++ or Hg^++, 50 mM Tris-HCl buffer. The protocol: (§1) The activity of the present maltose-trehalose converting enzyme is assayed as follows: One ml of an enzyme solution is added to one ml of 20 w/v % maltose as a substrate in 10 mM phosphate buffer (pH 7.0), and the mixture solution is incubated at 25° C., 35° C. or 60° C. for 60 min, followed by the heating the solution at 100° C. for 10 min to suspend the enzymatic reaction. To the resultant reaction mixture is precisely diluted by 11-fold with 50 mM phosphate buffer (pH 7.5), and 0.4 ml of the diluted solution is admixed with 0.1 ml of a trehalase solution having one unit/ml of trehalase. The resultant solution is incubated at 45° C. for 120 min, followed by determining the amount of glucose by the glucose-oxidase method. As a control, by using trehalase and an enzyme solution, which were preheated at 100° C. for 10 min to inactivate the enzyme, the activity of the enzyme solution is assayed similarly as above. With the above assay, the content of trehalose, formed by the present maltose-trehalose converting enzyme, is determined based on the amount of glucose formed, and one unit activity of the enzyme is defined as the amount of enzyme which forms one μmole of trehalose per minute. As regards to the reaction temperature, it is set to 25° C. for the enzyme of a microorganism of the genus Pimelobacter; 35° C. for that of the genus Pseudomonas; and 60° C. for that of the genus Thermus.
Effects of temperature and pH on the activity of the present enzyme were studied in accordance with the method as used for assaying the enzyme activity. […] The thermal stability of the enzyme was determined by incubating it in 50 mM phosphate buffers (pH 7.0) in test tubes at different temperatures for 60 min, cooling the test tubes with cold water, and assaying the residual enzyme activity in each buffer. The pH stability of the enzyme was determined by incubating it in 50 mM phosphate buffers having different pHs at 60° C. for 60 min, adjusting the resultant buffers to pH 7.0, and assaying the residual enzyme activity in each buffer.

Assay [2] relates to maltose-trehalose converting enzyme. Description: Inhibition of activity of the present enzyme. In kind it is biochemical, microorganisms. The settings on record: one mM Cu^++, Hg^++ and Tris-HCl buffer. Here is the method: as §1, with “The resultant solution is incubated at 45° C. for 120 min, followed by determining the amount of glucose by the glucose-oxidase method.” left out, “With the above assay, the content of trehalose, formed by the present maltose-trehalose converting enzyme, is determined based on the amount of glucose formed, and one unit activity of the enzyme is defined as the amount of enzyme which forms one μmole of trehalose per minute.” left out

In the case of `[Cu+2]` [Cu^++], the Inhibition of activity entry is “inhibited; also recorded: inhibitory” in assay [1] and “inhibited” in assay [2].

On to `[Hg+2]` [Hg^++], for which the Inhibition of activity entry is reported as “inhibited; also recorded: inhibitory” in assay [1] and “inhibited” in assay [2].

With `NC(CO)(CO)CO` [Tris-HCl buffer], the results for the Inhibition of activity entry in assay [1] and in assay [2] were “inhibited; also recorded: inhibitory” and “inhibited”, respectively.
